Measurements taken from patent publication US9296719B2, “Compositions and methods for the treatment of norovirus infection” (Indiana University Research and Technology Corporation, priority 2011, dated 2016).
Entries after “also recorded” stand apart in the source; their conditions may differ. Where two headings read alike, the source gives them in different places.

Assays:
[1] = system: recombinant GII.4 polymerase (NV RdRp); experiment: Differential scanning fluorimetry (DSF) binding to recombinant NV polymerase; set-up: species or system Human Norovirus
Source text: Differential Scanning Fluorimetry (DSF)
This method is used to examine the binding of proteins to drugs (31). The principle for the assay is that the thermal denaturation profile of the protein could be changed when it is complexed to the drug. To perform the assay, thermal melting curves of NV RdRp in the presence of inhibitors were obtained in 96-well plates using Stratagene Mx3005P Q-PCR system (Agilent Tachnologies, USA) and the fluorescent dye SYPRO Orange (Invitrogen, Carlsbad, Calif.). To evaluate the binding affinities of inhibitors, different concentrations of various drugs like VX-222, Filibuvir and Ribavirin were mixed with 20 μM purified NV RdRp and 5× concentration of SYPRO Orange. A heating rate of 1.0° C. per min was used from 25 to 90° C., and fluorescence intensity was read at excitation and emission wavelengths of 470 and 550 nm, respectively. Each sample was tested in triplicate, and the results were duplicated in at least two independent assays.

GII.4 NV polymerase = experiment: 5BR reporter assay, GII.4 polymerase; format: cell-based, Human Norovirus; details: for effect on GII.4 polymerase 5BR assay readout (screen): re-screened at 10 and 20 μM final concentrations, FIG. 6A
Description: (§1) The 5BR reporter assay to measure the activity of the Norovirus polymerase and other viral polymerases was performed as per Ranjith-Kumar et al. (32). The assay could also be performed with other viral proteins, such as VPg or VP1. Briefly, plasmids expressing RdRp and VPg were co-transfected along with plasmids to express RIG-I or MDA5, as well as the firefly and Renilla luciferase reporters. HEK293T or Huh 7 cells were transfected using Lipofectamine 2000 (Invitrogen, Carlsbad, Calif.) according to the manufacturer's instructions. 24 h prior to transfection, 0.75×10^5 cells were seeded into each well of Costar 96-well plates in DMEM containing 10% FBS. Cells were then typically transfected at 75% confluency with plasmid amounts detailed in the figure legends and complexed with Lipofectamine 2000 as per the manufacturer's instructions (Invitrogen, USA). Vector plasmid (pUNO-MCS) was used to maintain a constant total plasmid DNA per well. To examine the VPg effect on NV RdRp-RIG-I signaling, 293T cells were co-transfected with plasmids expressing RdRp and VPg. At 36 h after transfection, luciferase activity was measured using Dual-Glo Luciferase Assay System (Promega, Madison, Wis.) in Synergy 2 microplate reader (BioTek, Winooski, Vt.).
Where inhibitors were added to the cells for the 5BR assay, they were added 2 h after transfection of the plasmids.
We have previously developed an easily manipulative, cell-based assay to assess RNA synthesis by viral polymerases. The 5BR assay was validated for the 1b HCV polymerase (NS5B) and has since been established for several other viruses that cannot infect cultured human cells (32 and data not shown). The assay works by having the viral polymerase synthesize RNAs, which then act as agonists to activate RIG-I and/or MDA5. Receptor activation induces Firefly luciferase reporter expression which is driven by the interferon beta promoter (FIG. 2A). A Renilla luciferase is expressed in the same cells to report on the transfection efficiency and possible cytopathic effects. The polymerase from the GII.4 strain of Norwalk virus is the prototype in our assay.
The 5BR assay format has been validated for studies of nonnucleoside and nucleoside inhibitors (NNI, NI, respectively) of the 1b and 2a HCV polymerase and how resistant mutations can prevent inhibition (32). Using this format, we performed a proof-of-concept screen for inhibitor of the GII.4 polymerase. […] The hits were re-screened at 10 and 20 μM final concentrations (FIG. 6A). […] This is consistent with the results of Chang et al., (18) although Ribavirin is known to have pleiotropic effects on cellular as well as viral processes (66).

MNV polymerase = target: T1, MNV polymerase (Norovirus, UniProt Q80J95); experiment: 5BR reporter assay, MNV polymerase; format: cell-based, Mouse norovirus; details: 5BR assay; read-out: EC50, inhibition of MNV polymerase
T1 construct: NS7, the RNA-dependent RNA polymerase (RdRp), and NS5 (VPg), the protein primer; expressed in transfected cells; host or cells: HEK293T or Huh 7
Description: as §1
(§2) Where inhibitors were added to the cells for the 5BR assay, they were added 2 h after transfection of the plasmids. […]

[2] = target: GII.4 polymerase-VPg complex; experiment: 5BR reporter assay, GII.4 polymerase-VPg complex; format: cell-based, Human Norovirus
Description: as §1, §2

RIG-I signaling = RIG-I signaling in the absence of the NV polymerase; format: cell-based, human; details: absence of the NV polymerase (data not shown)
Description: as §1, with “Vt.). […]” for “Vt.).”

Compound: CCc1cc(CC[C@]2(C3CCCC3)CC(O)=C(Cc3nc4nc(C)cc(C)n4n3)C(=O)O2)cc(CC)n1 [Filibuvir]
- effect in the DSF assay ([1]; recombinant GII.4 polymerase): no effect
- effect on GII.4 polymerase 5BR assay readout (screen) (GII.4 NV polymerase): no effect; also recorded: did not affect

Compound: NC(=O)c1ncn([C@@H]2O[C@H](CO)[C@@H](O)[C@H]2O)n1 [Ribavirin]
- concentration at which the thermal denaturation profile starts to shift ([1]; nucleoside form): 1 µM
- effect on GII.4 polymerase 5BR assay readout (screen) (GII.4 NV polymerase): modest inhibitory effect

Compound: VX-222
- shift of thermal denaturation profile (apparent Tm) of GII.4 polymerase ([1]; absence of VPg, apparent Tm of polymerase alone ~43.5° C.): more than 4.5 °C
- EC50 (MNV polymerase): ~15 µM
- EC50 (GII.4 NV polymerase; 5BR assay, polymerase alone (no VPg), read-out: EC50, inhibition of GII4 polymerase): ~15 µM
- EC50 (GII.4 NV polymerase; HEK293T cells, 5BR assay, read-out: effective concentration for inhibition): ~0.1 µM
- inhibition of GII.4 NV polymerase activity in Huh7 cells (GII.4 NV polymerase; Huh7 cells, 5BR assay, GII.4 VP1 co-expressed, FIG. 6C): concentration-dependent inhibition
- EC50 ([2]; 5BR assay, VPg co-expressed, read-out: EC50 with GII.4 polymerase-VPg complex): 0.9 µM
- EC50 ([2]; library screen, read-out: EC50, inhibitor of human norovirus polymerase-VPg complex): < 1 µM
- effect on RIG-I signaling (RIG-I signaling): did not affect
